Source: PubChem BioAssay (NCI)
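Each compound was tested at five concentrations against cells in 96-well plates for 48 hours. Abbreviation: GI50, concentration required for 50% inhibition of growth. Definition used: TGI = concentration required for complete inhibition of growth.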

How the values were obtained:
Test in all cases: NCI-60 cell line screen, 48 h
786-0 renal = test system: 786-0 renal
ACHN renal = test system: ACHN renal
K-562 leukemia = test system: K-562 leukemia
MCF7 breast = test system: MCF7 breast
MDA-MB-435 = test system: MDA-MB-435
NCI-H226 lung = test system: NCI-H226 lung
RXF 393 renal = test system: RXF 393 renal
SK-MEL-28 melanoma = test system: SK-MEL-28 melanoma
UACC-62 melanoma = test system: UACC-62 melanoma
UO-31 renal = test system: UO-31 renal

Row | SMILES | GI50 (786-0 renal) [µM] | TGI (786-0 renal) [µM] | GI50 (ACHN renal) [µM] | TGI (ACHN renal) [µM] | GI50 (K-562 leukemia) [µM] | TGI (K-562 leukemia) [µM] | GI50 (MCF7 breast) [µM] | TGI (MCF7 breast) [µM] | GI50 (MDA-MB-435) [µM] | TGI (MDA-MB-435) [µM] | GI50 (NCI-H226 lung) [µM] | TGI (NCI-H226 lung) [µM] | GI50 (RXF 393 renal) [µM] | TGI (RXF 393 renal) [µM] | GI50 (SK-MEL-28 melanoma) [µM] | TGI (SK-MEL-28 melanoma) [µM] | GI50 (UACC-62 melanoma) [µM] | TGI (UACC-62 melanoma) [µM] | GI50 (UO-31 renal) [µM] | TGI (UO-31 renal) [µM]
1 | COc1cccc(NC(=O)c2sc3nc4c(cc3c2N)C(=O)CCC4)c1 | 0.366 | > 100 | 0.568 | > 100 | 0.0513 | > 100 | 0.0443 | > 100 | 0.0221 | 0.0548 | 2.18 | > 100 | 0.084 | 1.51 | 0.81 | > 100 | 0.0749 | > 100 | 0.449 | > 100
2 | Cc1cc(C)c(NC(=S)NC(=O)c2ccccc2)cc1C |  | > 100 |  | > 100 |  | > 100 |  | > 100 |  | > 100 |  | > 100 |  | > 100 |  | > 100 |  | > 100 |  | > 100
3 | COc1nc(N)nc2c1ncn2C1OC(CO)C(O)C1O (stereo not drawn) | > 5000 | > 5000 | 723 | > 5000 | > 5000 | > 5000 | 3800 | > 5000 | > 5000 | > 5000 | > 5000 | > 5000 | 2.32 |  | 2280 | > 5000 | > 5000 | > 5000 | > 5000 | > 5000
4 | Cc1ccc(C)c(C2NC(=O)c3ccccc3N2)c1 (stereo not drawn) |  | > 64 |  | > 89 |  | > 30.1 |  | > 84.5 |  | 0.832 |  | 20.5 |  | 14.3 |  | > 100 |  | > 70.3 |  | > 100
5 | CCn1c(-c2cc3ccccc3cc2O)nn(C(=O)c2c(Cl)cccc2Cl)c1=S | 10.8 | 27.4 | 16.2 | > 50 | 14.3 | > 50 | > 50 | > 50 | > 50 | > 50 | 14.2 | 40.2 | 14.5 | > 50 | > 50 | > 50 | 17.2 | > 50 | 10.5 | 24.8
6 | CCC(CNc1cc(OC)cc2cccnc12)NC1CCCCC1 (stereo not drawn) | 24 | 69.4 | 49.7 | > 100 | 7.68 | 53.8 | 20.7 | > 100 | 32.6 | > 100 | 86 | > 100 | 71.2 | > 100 | 25.6 | 64.7 | 40.1 | > 100 | 4.47 | > 100
7 | COc1ccccc1CNCCCN1C(=O)c2ccc3c4c(ccc(c24)C1=O)C(=O)N(CCCCNCCCN)C3=O | 2.25 | 9.35 | 3.68 | 17.3 | 1.9 | 4.87 | 0.472 | 1.35 | 0.574 | 1.16 | 2.26 | 9.24 | 0.807 | 2.3 | 1.59 | 3.55 | 1.01 | 2.68 | 3.5 | 14.4
8 | CC[N+]1(C)CCC(O)(c2ccc(OC)cc2)C(C(=O)c2ccc(OC)cc2)C1 (stereo not drawn) |  | 9.05 |  | 27.2 |  | > 22.4 |  | 17.7 |  | 31.1 |  | 34.4 |  | 23.9 |  | 29.3 |  | 38.4 |  | 33.6
9 | CN/N=C(\C)C(CN(C)C)C(c1ccccc1)c1c(O)c2ccccc2oc1=O (stereo not drawn) |  | > 100 |  | > 100 |  | > 100 |  | > 100 |  | > 100 |  | > 100 |  | > 100 |  | > 100 |  | > 100 |  | > 100
10 | NC(=O)c1cccc(Nc2nccc(Nc3cccc4[nH]ncc34)n2)c1 | 10.8 | > 25 | 10.9 | > 25 | 4.53 | > 25 | 9.49 | > 25 | 8.58 | > 25 | 5.52 | > 20.1 | 4.43 | 16.3 | 10.1 | > 25 | 7.02 | > 25 | 12.4 | > 25
11 | Cn1c2ccc(Br)cc2c2c3c(c4c5ccccc5[nH]c4c21)C(=O)N(O)C3=O | 0.174 | 0.421 | 0.0448 | 0.244 | 0.168 |  | 0.04 | 0.309 | 0.18 | 0.498 | 1.06 | 2.92 | 0.158 | 0.329 | 0.212 | 0.498 | 0.183 | 0.529 | 0.0917 | 0.308
12 | O=C(OCc1ncc(-c2ccc(C(F)(F)F)cc2)c(NC2CCCCCC2)n1)c1c(F)c(F)c(F)c(F)c1F | 11.4 | 27.2 | 14.2 | 29.2 | 4.86 | 30.2 | 2.06 | 5.81 | 15.8 | 32.6 | 5.59 | 21.2 | 5.34 | 21.3 | 11.7 | 24.7 | 14.2 | 29.2 | 8.12 | 21.3
